Laboratory results reported in US10815238B2, “Antimicrobial compounds and methods of making and using the same” (BIOVERSYS AG, priority 2013, dated 2020).

Key:
[1] = tested on: Eschericia coli (E. coli) strain ATCC25922; assay: Standard microdilution assay, MIC against E. coli ATCC25922; type: cell-based; conditions: Escherichia coli; E. coli strain ATCC25922, standard microdilution assay; cutoff 16 micrograms/mL; read-out: MIC E. Coli
Outline: (§1)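 MIC determined by broth microdilution following CLSI protocols, with reference strains run in parallel for quality control. Activity scored +/− at a cutoff of 16 micrograms/mL.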

[2] = tested on: Staphylococcus aureus (S. aureus) 11540 strain; assay: Standard microdilution assay, MIC against S. aureus 11540; type: cell-based; conditions: S. aureus 11540 strain, standard microdilution assay, cutoff 16 micrograms/mL, read-out: MIC S. aureus
Outline: as §1

MIC [1] [µg/mL]	MIC [2] [µg/mL]	SMILES
< 16	< 16	COC[C@H](CCNC(=N)N)N[C@@H](C)c1ccc(-n2cc3cc(-c4cc(CCC[C@H](C)N)cc(Cl)c4F)[nH]c3nc2=O)cc1 [Compound 355]
< 16	< 16	C[C@H](NCCCNC(=N)N)c1ccc(-n2cc3cc(-c4cc(CCC[C@@H](N)CN=[N+]=[N-])cc(Cl)c4F)[nH]c3nc2=O)cc1 [Compound 326]
< 16	< 16	C[C@H](N)CCCc1cc(OC(F)(F)F)c(F)c(-c2cc3cn(-c4ccc([C@@H](N)CCN)cc4)c(=O)nc3[nH]2)c1 [Compound 426]
< 16	< 16	C[C@H](N)CCCc1cc(Cl)c(F)c(-c2cc3cn(-c4ccc([C@H](C)NCC[C@@H]5COC(=O)N5)cc4)c(=O)nc3[nH]2)c1 [Compound 386]
< 16	< 16	C[C@H](N)CCCc1cc(Cl)c(F)c(-c2cc3cn(-c4ccc([C@H]5CC(CCNC(=N)N)CN5)cc4)c(=O)nc3[nH]2)c1 (stereo partly drawn) [Compound 469]
< 16	< 16	C[C@@H](CN)CN1CC[C@@H](c2cc3cn(-c4ccc(CNCCCNC(=N)N)cc4)c(=O)nc3[nH]2)C1 [Compound 569]
> 16	< 16	C[C@H](N)CCCc1cc(Cl)c(F)c(-c2cc3cn(-c4ccc([C@@H]5CCC[C@@H](CCn6cnc([N+](=O)[O-])c6)N5)cc4)c(=O)nc3[nH]2)c1 [Compound 548]
< 16	< 16	C[C@H](N)CCCc1cc(Cl)c(F)c(-c2cc3cn(-c4ccc([C@H](C)N[C@@H](CCNC(=N)N)C(N)=O)cc4)c(=O)nc3[nH]2)c1 [Compound 363]
< 16	< 16	C[C@H](N)CCCc1cc(Cl)c(F)c(-c2cc3cn(-c4ccc([C@H](N)CCCN)cc4)c(=O)nc3[nH]2)c1 [Compound 454]
< 16	< 16	CC[C@H](N)CCCc1cc(Cl)c(F)c(-c2cc3cn(-c4ccc([C@H](C)NCC[C@H](CN)NC(=N)N)cc4)c(=O)nc3[nH]2)c1 [Compound 414]
< 16	< 16	C[C@H](N)CCCc1cc(Cl)c(F)c(-c2cc3cn(-c4ccc([C@@H]5COC[C@@H](CNC(=N)N)N5)cc4)c(=O)nc3[nH]2)c1 [Compound 465]
< 16	< 16	C[C@H](N)CCCc1cc(Cl)c(F)c(-c2cc3cn(-c4ccc([C@@H]5CCC[C@@H](CCC(N)=O)N5)cc4)c(=O)nc3[nH]2)c1 [Compound 511]
< 16	< 16	C[C@H](N)CCCc1cc(Cl)c(F)c(-c2cc3cn(-c4ccc(CN[C@H](C)C[C@@H](CN)NC(=N)N)cc4)c(=O)nc3[nH]2)c1 [Compound 401]
> 16	> 16	C[C@@H](CN)CN1CC[C@@H](c2cc3cn(-c4ccc(C(=N)NC5CCCC5)cc4)c(=O)nc3[nH]2)C1 [Compound 580]
> 16	< 16	C[C@H](N)CCCc1cc(OC(F)(F)F)c(F)c(-c2cc3cn(-c4ccc(C(O)[C@@H]5C[C@@H](N)CN5)cc4)c(=O)nc3[nH]2)c1 (stereo partly drawn) [Compound 449]
< 16	< 16	C[C@H](N)CCCc1cc(Cl)c(F)c(-c2cc3cn(-c4ccc([C@@H]5CCC[C@@H](CCc6c[nH]cn6)N5)cc4)c(=O)nc3[nH]2)c1 [Compound 549]
< 16	< 16	C[C@H](N)CCCc1cc(Cl)c(F)c(-c2cc3cn(-c4ccc([C@H](C)N5CC[C@@H](NC(=N)N)C5)cc4)c(=O)nc3[nH]2)c1 [Compound 431]
< 16	< 16	C[C@H](N)CCCc1cc(Cl)c(F)c(-c2cc3cn(-c4ccc([C@H]5CC[C@H](CCNC(=N)N)N5)cc4)c(=O)nc3[nH]2)c1 [Compound 349]
< 16	< 16	C[C@H](N)CCCc1cc(Cl)c(F)c(-c2cc3cn(-c4ccc(C5(CCNC(=N)N)CNC5)cc4)c(=O)nc3[nH]2)c1 [Compound 434]
< 16	< 16	C[C@H](N)CCCc1cc(Cl)c(F)c(-c2cc3cn(-c4ccc([C@@H](N)CCNC(=N)N)cc4)c(=O)nc3[nH]2)c1 [Compound 427]
< 16	< 16	C[C@H](N)CCCc1cc(Cl)c(F)c(-c2cc3cn(-c4ccc([C@@H]5COC[C@@H](CCNC(=N)N)N5)cc4)c(=O)nc3[nH]2)c1 [Compound 353]
< 16	< 16	C[C@H](N)CCCc1cc(OC(F)(F)F)c(F)c(-c2cc3cn(-c4ccc([C@H](C)NCC[C@H](CCN)NC(=N)N)cc4)c(=O)nc3[nH]2)c1 [Compound 325]
< 16	< 16	C[C@H](N)CCCc1cc(OC(F)(F)F)c(F)c(-c2cc3cn(-c4ccc(C(CO)CNC(=N)N)cc4)c(=O)nc3[nH]2)c1 (stereo partly drawn) [Compound 480]
< 16	< 16	C[C@H](N)CCCc1cc(Cl)c(F)c(-c2cc3cn(-c4ccc([C@H](C)NCC[C@H](CC(N)=O)NC(=N)N)cc4)c(=O)nc3[nH]2)c1 [Compound 348]

MIC [1] [µg/mL]	MIC [2] [µg/mL]	SMILES
> 16	> 16	C[C@H](N)CCCc1cc(-c2cc3cn(CC(=O)NCc4ccc(CNC(=N)N)cc4)c(=O)nc3[nH]2)cc(C(F)(F)F)c1 [Compound 582]
< 16	< 16	C[C@H](N)CCCc1cc(Cl)c(F)c(-c2cc3cn(-c4ccc(CN[C@H](CCN)CNc5nccs5)cc4)c(=O)nc3[nH]2)c1 [Compound 490]
< 16	< 16	C[C@H](N)CCCc1cc(Cl)c(F)c(-c2cc3cn(-c4ccc(CN[C@H](C)C[C@@H](CCO)NC(=N)N)cc4)c(=O)nc3[nH]2)c1 [Compound 381]
< 16	< 16	C[C@H](N)CC[C@H](N)c1cc(Cl)c(F)c(-c2cc3cn(-c4ccc([C@H](C)NCCCNC(=N)N)cc4)c(=O)nc3[nH]2)c1 [Compound 342]
< 16	< 16	C[C@H](N)CCCc1cc(Cl)c(F)c(-c2cc3cn(-c4ccc([C@@H]5CC(CCNC(=N)N)CN5C(=N)N)cc4)c(=O)nc3[nH]2)c1 (stereo partly drawn) [Compound 407]
< 16	< 16	C[C@H](N)CCCc1cc(Cl)c(F)c(-c2cc3cn(-c4ccc([C@@H]5CCC[C@@H](CNC(=N)N)N5)cc4)c(=O)nc3[nH]2)c1 [Compound 540]
> 16	> 16	C[C@H](N)CCCc1cc(Cl)c(F)c(-c2cc3cn(-c4ccc([C@@H]5CCC[C@@H](Cc6ncc(N)s6)N5)cc4)c(=O)nc3[nH]2)c1 [Compound 529]
< 16	< 16	C[C@H](N)CCCc1cc(OC(F)(F)F)c(F)c(-c2cc3cn(-c4ccc(CNCC[C@H](CN5CCOCC5)NC(=N)N)cc4)c(=O)nc3[nH]2)c1 [Compound 328]
> 16	> 16	C[C@H](N)CCCc1cc(Cl)c(F)c(-c2cc3cn(-c4ccc([C@@H]5CCC[C@@H](Cc6nn[nH]n6)N5)cc4)c(=O)nc3[nH]2)c1 [Compound 509]
< 16	< 16	C[C@H](N)CCCc1cc(Cl)c(F)c(-c2cc3cn(-c4ccc(C(=N)NCCCN)cc4)c(=O)nc3[nH]2)c1 [Compound 460]
< 16	< 16	C[C@H](N)CCCc1cc(Cl)c(F)c(-c2cc3cn(-c4ccc(C5(CCNC(=N)N)CN(C(=N)N)C5)cc4)c(=O)nc3[nH]2)c1 [Compound 404]
< 16	< 16	N=C(N)NCC[C@H](CO)NCc1ccc(-n2cc3cc(-c4cc(CCC[C@@H](N)CO)cc(Cl)c4F)[nH]c3nc2=O)cc1 [Compound 377]
< 16	< 16	C[C@H](N)CCCc1cc(Cl)c(F)c(-c2cc3cn(-c4ccc(C(=O)NCCCN)cc4)c(=O)nc3[nH]2)c1 [Compound 475]
< 16	< 16	COC[C@H](CCN[C@@H](C)c1ccc(-n2cc3cc(-c4cc(CCC[C@H](C)N)cc(OC(F)(F)F)c4F)[nH]c3nc2=O)cc1)NC(=N)N [Compound 346]
< 16	< 16	C[C@H](N)CCCc1cc(Cl)c(F)c(-c2cc3cn(-c4ccc(CN[C@@H](CN)CCNC(=N)N)cc4)c(=O)nc3[nH]2)c1 [Compound 379]
< 16	< 16	C[C@H](N)CCCc1cc(Cl)c(F)c(-c2cc3cn(-c4ccc([C@H](C)NCC[C@H](CC#N)NC(=N)N)cc4)c(=O)nc3[nH]2)c1 [Compound 332]
< 16	< 16	C[C@H](N)CCCc1cc(Cl)c(F)c(-c2cc3cn(-c4ccc(CN[C@@H](C)C[C@H](CO)NC(=N)N)cc4)c(=O)nc3[nH]2)c1 [Compound 437]
< 16	< 16	C[C@H](N)CCCc1cc(Cl)c(F)c(-c2cc3cn(-c4ccc(CN[C@H](CCNC(=N)N)CNc5ncccn5)cc4)c(=O)nc3[nH]2)c1 [Compound 524]
< 16	< 16	C[C@H](N)CCCc1cc(OC(F)(F)F)c(F)c(-c2cc3cn(-c4ccc(C5(CCNC(=N)N)CNC5)cc4)c(=O)nc3[nH]2)c1 [Compound 435]
> 16	> 16	C[C@H](N)CCCc1cc(OC(F)(F)F)c(F)c(-c2cc3cn(-c4ccc([C@H](C)N[C@@H](CCNC(=N)N)C(=O)O)cc4)c(=O)nc3[nH]2)c1 [Compound 364]
< 16	< 16	C[C@H](N)CCCc1cc(OC(F)(F)F)c(F)c(-c2cc3cn(-c4ccc([C@H](C)NCC[C@H](CC#N)NC(=N)N)cc4)c(=O)nc3[nH]2)c1 [Compound 333]
> 16	< 16	C[C@H](N)CCCc1cc(Cl)c(F)c(-c2cc3cn(-c4ccc([C@@H]5CCC[C@@H](CC#N)N5)cc4)c(=O)nc3[nH]2)c1 [Compound 498]
< 16	< 16	C[C@H](N)CCCc1cc(Cl)c(F)c(-c2cc3cn(-c4ccc([C@H](C)NCC[C@H](N)CNC(=O)CN)cc4)c(=O)nc3[nH]2)c1 [Compound 424]
> 16	> 16	C[C@H](N)CCCc1cc(Cl)c(F)c(-c2cc3cn(-c4ccc([C@@H]5CCC[C@@H](Cn6cn[nH]c6=O)N5)cc4)c(=O)nc3[nH]2)c1 [Compound 539]
